US10167257B2, “Indole derivatives for use in medicine” (IOmet Pharma Ltd., priority 2014, dated 2019)

How the values were obtained:
IDO (SKOV-3 cells) = target: T1, IDO (SKOV-3 cells) (Homo sapiens, UniProt P14902); test: IDO cell-based assay (SKOV-3, IFNγ-induced), kynurenine production; conditions: SKOV-3 ovary adenocarcinoma cells, IFNγ 500 ng/ml, 500 μM L-Trp, 48 h, kynurenine by absorbance at 490 nm
T1 construct: This assay utilised cancer cells which expressed either TDO or IDO; host or cells: SKOV-3 ovary adenocarcinoma cells, IFNγ-induced
From the text: (§1) Two different types of assay were employed: 1. A TDO and IDO biochemical coupled assay which utilised recombinantly produced and purified TDO and IDO enzymes in combination with the enzyme formamidase. This coupled enzyme system allowed conversion of N-formylkynurenine produced by TDO or IDO activity to kynurenine which was then quantified by fluorescence following addition of Erhlich's Reagent. 2. A cell-based assay for detecting the effect of test compounds on kynurenine production in two different cancer cell types. This assay utilised cancer cells which expressed either TDO or IDO and as such was used as a means of testing compound activity at these two enzymes in a cell-based context. The protocols for these are set out below.
(§2) A172 human glioblastoma (ATCC) were grown in DMEM+2 mM L-glutamine medium supplemented with 10% foetal bovine serum and SKOV-3 ovary adenocarcinoma (ATCC) cells were grown in McCoys 5A+L-glutamax medium supplemented with 15% foetal bovine serum. On the day of assay, cells were detached using trypsin-EDTA (0.25% v/v), re-suspended in assay media (RPMI 1640 phenol red free+L-glutamine supplemented with 10% dialysed foetal bovine serum). A172 cells were seeded at 30K cells per well and SKOV-3 cells at 40K cells per well into 96-well plates containing test samples/vehicle control together with 500 μM L-Trp. Cells were then incubated for 48 h at 37° C., 5% CO2. In SK-OV-3 cells, IFNγ was also added at 500 ng/ml for the 48 h incubation in order to induce expression of IDO. Plates were centrifuged and the supernatant was removed and incubated for 5 min in the presence of 1% Erhlich's reagent. Kynurenine levels were then quantified by measuring absorbance at 490 nm.

TDO (A172 cells) = target: T2, TDO (A172 cells) (Homo sapiens, UniProt P48775); test: TDO cell-based assay (A172), kynurenine production; conditions: A172 human glioblastoma cells, 500 μM L-Trp, 48 h, kynurenine by absorbance at 490 nm
T2 construct: This assay utilised cancer cells which expressed either TDO or IDO; host or cells: A172 human glioblastoma cells
From the text: as §1, §2

T1 sequence (P14902 whole entry): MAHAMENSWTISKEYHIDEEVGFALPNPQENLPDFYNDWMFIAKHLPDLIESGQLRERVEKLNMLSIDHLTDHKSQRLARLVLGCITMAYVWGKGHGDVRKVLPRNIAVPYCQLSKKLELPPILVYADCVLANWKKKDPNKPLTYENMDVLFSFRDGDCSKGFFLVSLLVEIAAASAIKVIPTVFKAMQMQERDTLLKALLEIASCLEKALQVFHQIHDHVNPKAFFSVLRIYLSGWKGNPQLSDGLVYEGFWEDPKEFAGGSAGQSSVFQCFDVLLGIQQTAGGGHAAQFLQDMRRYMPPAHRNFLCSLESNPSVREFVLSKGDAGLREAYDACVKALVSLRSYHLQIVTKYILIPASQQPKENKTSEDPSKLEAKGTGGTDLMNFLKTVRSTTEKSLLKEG
T2 sequence (P48775 whole entry): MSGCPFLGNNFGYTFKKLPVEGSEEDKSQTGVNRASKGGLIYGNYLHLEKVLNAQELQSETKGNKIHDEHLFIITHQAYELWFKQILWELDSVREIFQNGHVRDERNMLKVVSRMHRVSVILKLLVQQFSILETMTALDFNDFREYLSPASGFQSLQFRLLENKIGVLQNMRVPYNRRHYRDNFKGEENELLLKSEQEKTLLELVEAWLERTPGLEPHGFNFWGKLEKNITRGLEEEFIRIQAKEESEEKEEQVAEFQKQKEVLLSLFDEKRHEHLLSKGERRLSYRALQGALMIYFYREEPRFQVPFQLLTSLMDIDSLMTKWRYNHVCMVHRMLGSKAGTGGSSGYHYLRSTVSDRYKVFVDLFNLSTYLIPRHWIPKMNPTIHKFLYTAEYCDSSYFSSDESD

Structure (SMILES)	IDO cellular assay (SKOV3) pIC50 (IDO (SKOV-3 cells))	TDO cellular assay (A172) pIC50 (TDO (A172 cells))	IC50 (IDO (SKOV-3 cells); read-out: IDO cellular assay (SKOV3) pIC50 (converted))	IC50 (TDO (A172 cells); read-out: TDO cellular assay (A172) pIC50 (converted))
CC(NC(=O)c1cc2cc(F)ccc2[nH]1)c1ccccn1 (centres unmarked) [Compound 42]	++ (++ = pIC50 5.00-<5.50)	− (− = pIC50 <4.50)		
COc1ccc2[nH]c(C(=O)NC3(c4ccccc4)COC3)cc2c1 [Compound 178]	+++ (+++ = pIC50 ≥5.50)	− (− = pIC50 <4.50)		
CC(NC(=O)c1cc2cc(Cl)ccc2[nH]1)c1ccn(C)n1 (centres unmarked) [Compound 201]	+ (+ = pIC50 4.50-<5.00)	− (− = pIC50 <4.50)		
Cn1cc(C2(NC(=O)c3cc4cc(Cl)cnc4[nH]3)CC2)cn1 [Compound 177]	++ (++ = pIC50 5.00-<5.50)	− (− = pIC50 <4.50)		
Cn1cc(C2(NC(=O)c3cc4cc(Br)ccc4[nH]3)CCC2)cn1 [Compound 268]	+++ (+++ = pIC50 ≥5.50)	− (− = pIC50 <4.50)		
C[C@@H](NC(=O)c1cc2cc(O)ccc2[nH]1)c1ccccc1 [Compound 181]	+ (+ = pIC50 4.50-<5.00)	− (− = pIC50 <4.50)		
O=C(NC1CCOc2ccccc21)c1cc2ccccc2[nH]1 (centres unmarked) [Compound 74]	+ (+ = pIC50 4.50-<5.00)	− (− = pIC50 <4.50)		
C[C@@H](NC(=O)c1cc2cc(C(F)(F)F)ccc2[nH]1)c1ccccc1 [Compound 158]	+++ (+++ = pIC50 ≥5.50)	− (− = pIC50 <4.50)		
O=C(NCc1cc2cc(F)ccc2[nH]1)c1ccccc1 [Compound 52]	+ (+ = pIC50 4.50-<5.00)	+ (+ = pIC50 4.50-<5.00)		
Cc1ccc(C(C)NC(=O)c2cc3ccccc3[nH]2)o1 (centres unmarked) [Compound 11]	++ (++ = pIC50 5.00-<5.50)	++ (++ = pIC50 5.00-<5.50)		
O=C(Nc1cccc2cnccc12)c1cc2ccc(F)cc2[nH]1 [Compound 2]	++ (++ = pIC50 5.00-<5.50)	− (− = pIC50 <4.50)		
N#Cc1ccc2[nH]c(C(=O)NC3(c4ccccc4)CC3)cc2c1 [Compound 136]	+++ (+++ = pIC50 ≥5.50)	− (− = pIC50 <4.50)		
COc1ccc2[nH]c(C(=O)N[C@H](C)c3ccccc3)cc2c1 [Compound 175]	+++ (+++ = pIC50 ≥5.50)	− (− = pIC50 <4.50)		
CC(=O)N1CCC(C2(NC(=O)c3cc4cc(Cl)ccc4[nH]3)CC2)CC1 [Compound 160]	+++ (+++ = pIC50 ≥5.50)	− (− = pIC50 <4.50)		
Cn1cc(C2(NC(=O)c3cc4c(F)c(Cl)ccc4[nH]3)CC2)cn1 [Compound 191]	+++ (+++ = pIC50 ≥5.50)	− (− = pIC50 <4.50)		
C[C@@H](NC(=O)c1cc2cc(Cl)cc(F)c2[nH]1)c1ccccc1 [Compound 174]	+++ (+++ = pIC50 ≥5.50)	++ (++ = pIC50 5.00-<5.50)		
C[C@@H](NC(=O)c1cc2cc(Cl)c(F)cc2[nH]1)c1ccccc1 [Compound 208]	+++ (+++ = pIC50 ≥5.50)	+ (+ = pIC50 4.50-<5.00)		
CC(NC(=O)c1cc2cc(Cl)ccc2[nH]1)C1CCN(S(C)(=O)=O)CC1 (centres unmarked) [Compound 111]	++ (++ = pIC50 5.00-<5.50)	− (− = pIC50 <4.50)		
CC(NC(=O)c1cc2cc(Cl)cc(F)c2[nH]1)c1cnn(C)c1 (centres unmarked) [Compound 202]	+++ (+++ = pIC50 ≥5.50)	− (− = pIC50 <4.50)		
C[C@H](NC(=O)c1cc2cccc(F)c2[nH]1)c1ccccc1 [Compound 63]	+ (+ = pIC50 4.50-<5.00)	+ (+ = pIC50 4.50-<5.00)		
CC(NC(=O)c1cc2ccc(C(F)F)cc2[nH]1)c1cnn(C)c1 (centres unmarked) [Compound 192]	+ (+ = pIC50 4.50-<5.00)	− (− = pIC50 <4.50)		
O=C(NC1(c2cnn(-c3ccccc3)c2)CC1)c1cc2cc(Cl)ccc2[nH]1 [Compound 151]	+++ (+++ = pIC50 ≥5.50)	− (− = pIC50 <4.50)		

Structure (SMILES)	IDO cellular assay (SKOV3) pIC50 (IDO (SKOV-3 cells))	TDO cellular assay (A172) pIC50 (TDO (A172 cells))	IC50 (IDO (SKOV-3 cells); read-out: IDO cellular assay (SKOV3) pIC50 (converted))	IC50 (TDO (A172 cells); read-out: TDO cellular assay (A172) pIC50 (converted))
O=C(NC1(c2ccccc2)CCC1)c1cc2cc(Cl)ccc2[nH]1 [Compound 132]	+++ (+++ = pIC50 ≥5.50)	+ (+ = pIC50 4.50-<5.00)		
CC(NC(=O)c1cc2cc(Cl)ccc2[nH]1)c1cnn(C(C)C)c1 (centres unmarked) [Compound 135]	+++ (+++ = pIC50 ≥5.50)	− (− = pIC50 <4.50)		
CC(NC(=O)c1cc2cc(Cl)ccc2[nH]1)c1ccc(OCCN(C)C)cc1 (centres unmarked) [Compound 102]	+ (+ = pIC50 4.50-<5.00)	− (− = pIC50 <4.50)		
O=C(NC1(c2ncccn2)CC1)c1cc2cc(Cl)ccc2[nH]1 [Compound 179]	++ (++ = pIC50 5.00-<5.50)	− (− = pIC50 <4.50)		
O=C(NC1(c2ccccc2)CC1)c1cc2cc(Cl)ccc2[nH]1 [Compound 128]	+++ (+++ = pIC50 ≥5.50)	+ (+ = pIC50 4.50-<5.00)		
O=C(NC(c1ccccc1)c1ccccc1)c1cc2cc(Cl)ccc2[nH]1 [Compound 237]	++ (++ = pIC50 5.00-<5.50)	− (− = pIC50 <4.50)		
CS(=O)(=O)Nc1ccc2cc(C(=O)NC3(c4ccccc4)CC3)[nH]c2c1 [Compound 190]	+ (+ = pIC50 4.50-<5.00)	− (− = pIC50 <4.50)		
O=C(NC(CO)c1ccccc1)c1cc2cc(Cl)ccc2[nH]1 (centres unmarked) [Compound 92]	+++ (+++ = pIC50 ≥5.50)	+ (+ = pIC50 4.50-<5.00)		
Cc1ccc2cc(C(=O)NC(C)c3ccccc3)[nH]c2c1 (centres unmarked) [Compound 78]	++ (++ = pIC50 5.00-<5.50)	+ (+ = pIC50 4.50-<5.00)		
CN1CCC(C(NC(=O)c2cc3cc(Cl)ccc3[nH]2)c2ccccc2)CC1 (centres unmarked) [Compound 256]	+ (+ = pIC50 4.50-<5.00)	+ (+ = pIC50 4.50-<5.00)		
CC(C)C(C)NC(=O)c1cc2cc(Cl)ccc2[nH]1 (centres unmarked) [Compound 71]	+++ (+++ = pIC50 ≥5.50)	+ (+ = pIC50 4.50-<5.00)		
CC(C)C(NC(=O)c1cc2cc(Cl)ccc2[nH]1)c1ccccc1 (centres unmarked) [Compound 101]	+++ (+++ = pIC50 ≥5.50)	+ (+ = pIC50 4.50-<5.00)		
CCc1ccc2[nH]c(C(=O)N[C@H](C)c3ccccc3)cc2c1 [Compound 241]	+++ (+++ = pIC50 ≥5.50)	− (− = pIC50 <4.50)		
Cn1cc(C2(NC(=O)c3cc4cc(Cl)ccc4[nH]3)CC2)cn1 [Compound 141]			≤ 3.16 µM	> 31.6 µM
CS(=O)(=O)N1CCC(C2(NC(=O)c3cc4cc(Cl)ccc4[nH]3)CC2)CC1 [Compound 161]	+++ (+++ = pIC50 ≥5.50)	− (− = pIC50 <4.50)		
Cc1ncc(C(C)NC(=O)c2cc3cc(Cl)ccc3[nH]2)o1 (centres unmarked) [Compound 228]	++ (++ = pIC50 5.00-<5.50)	++ (++ = pIC50 5.00-<5.50)		
CC(NC(=O)c1cc2cc(Cl)ccc2[nH]1)c1ccc(C(=O)N2CCOCC2)cc1 (centres unmarked) [Compound 90]	+++ (+++ = pIC50 ≥5.50)	− (− = pIC50 <4.50)		
COc1ccc2[nH]c(C(=O)NC(C)c3cnn(C)c3)cc2c1 (centres unmarked) [Compound 186]	+++ (+++ = pIC50 ≥5.50)	− (− = pIC50 <4.50)		
CCc1ccc2[nH]c(C(=O)NC3(c4cnn(C)c4)CC3)cc2c1 [Compound 264]	+++ (+++ = pIC50 ≥5.50)	− (− = pIC50 <4.50)		
O=C(NC1(c2ccccc2)COC1)c1cc2cc(C(F)(F)F)ccc2[nH]1 [Compound 170]	+++ (+++ = pIC50 ≥5.50)	+ (+ = pIC50 4.50-<5.00)		
C[C@@H](NC(=O)c1cc2c(F)c(Cl)ccc2[nH]1)c1ccccc1 [Compound 183]	+++ (+++ = pIC50 ≥5.50)	+ (+ = pIC50 4.50-<5.00)		
